Results from patent US10570121B2, “Substituted dihydroisoquinolinone compounds” (priority 2014, dated 2020).
Where two headings read alike, the source gives them in different places.

Assays:
WT EZH2 = WT EZH2 (Homo sapiens (Human), UniProt Q15910); assay: WT EZH2 nucleosome assay (10X SAM, high SAM conditions); format: biochemical; conditions: 15 uM SAM, Ki app from competitive inhibition fit
Method: (§1) The genes for EZH2, EED, SUZ12, and RBBP4 proteins were cloned into pBacPAK9 vectors (Clontech). RBBP4 was FLAG tagged on the N-terminal end. The baculovirus expressions of these proteins were used to co-infect SF9 insect cells. Insect cell pellets were lysed in a buffer containing 25 mM Tris pH8.0, 300 mM NaCl, 0.5 mM TCEP, complete EDTA-free protease inhibitor (Roche), 0.1% NP-40. The supernatant from the lysate was incubated with FLAG® M2 antibody resin (Sigma). The resin was washed on the chromatography column and eluted with 0.2 mg/ml FLAG peptide. The elute was incubated with omnicleave nucleases (Epicentre Technologies) at 4° C. overnight, then concentrated and loaded onto a Superdex 200 (GE Healthcare) column. The Superdex 200 column was eluted with 25 mM Tris pH8.0, 150 mM NaCl, 0.5 mM TCEP. Fractions containing the PRC2 complex were pooled.
(§2) A. Compound preparation • 1.
(§3) B. Reagent preparation • 1. […] Dilute TCA to 20% in DI water
(§4) C. Enzyme reaction • 1. […] Some compounds were tested under high SAM conditions.
(§5) D. Data analysis • 1. IC50 values were determined by fitting the data to a 4-parameter IC50 equation using proprietary curve fitting software. • 2. For compounds tested under high SAM conditions, Ki^app values were obtained by fitting the dose response curve to a model for competitive inhibition using proprietary curve fitting software. Preparation of HeLa Oligonucleosomes: Reagents • Cell Pellet: 15 L HeLa S3 (Accelgen)+6 L HeLa S3 (in house) • Mnase (Worthington Biochemicals) Equipment • SW-28 Rotor • Dounce Homogenizer/B Pestle Buffers • Lysis: 20 mM Hepes pH 7.5, 0.25M Sucrose, 3 mM MgCl2, 0.5% Nonidet P-40, 0.5 mM TCEP, 1 Roche Protease Tablet • B: 20 mM Hepes pH7.5, 3 mM MgCl2, 0.5 mM EDTA, 0.5 mM TCEP, 1 Roche Protease Tablet • MSB: 20 mM Hepes pH7.5, 0.4 M NaCl, 1 mM EDTA, 5% v/v Glycerol, 0.5 mM TCEP, 0.2 mM PMSF • LSB: 20 mM Hepes pH7.5, 0.1M NaCl, 1 mM EDTA, 0.5 mM TCEP, 0.2 mM PMSF • NG: 20 mM Hepes pH7.5, 1 mM EDTA, 0.4 m NaCl, 0.2 mM PMSF, 0.5 mM TCEP • Storage: 20 mM Hepes pH7.5, 1 mM EDTA, 10% Glycerol, 0.2 mM PMSF, 0.5 mM TCEP Protocol

EZH2 Mutant Y641N = EZH2 Mutant Y641N (Homo sapiens (Human), UniProt Q15910, Y641N); assay: EZH2 Mutant Y641N nucleosome assay; format: biochemical; conditions: PRC2 4-protein complex 6 nM, 1.5 μM SAM, HeLa oligonucleosomes
Method: as §1, §2, §3, §4, §5

[1] = read-out: WT EZH2 Nucleosome assay (10X SAM) Ki
[2] = read-out: EZH2 Mutant Y641N Nucleosome assay IC50
[3] = WT EZH2 Nucleosome assay (10X SAM) Ki (μM)
[4] = EZH2 Mutant Y641N Nucleosome assay IC50 (μM)

Chain of EZH2 Mutant Y641N (Q15910 whole entry Y641N, looked up): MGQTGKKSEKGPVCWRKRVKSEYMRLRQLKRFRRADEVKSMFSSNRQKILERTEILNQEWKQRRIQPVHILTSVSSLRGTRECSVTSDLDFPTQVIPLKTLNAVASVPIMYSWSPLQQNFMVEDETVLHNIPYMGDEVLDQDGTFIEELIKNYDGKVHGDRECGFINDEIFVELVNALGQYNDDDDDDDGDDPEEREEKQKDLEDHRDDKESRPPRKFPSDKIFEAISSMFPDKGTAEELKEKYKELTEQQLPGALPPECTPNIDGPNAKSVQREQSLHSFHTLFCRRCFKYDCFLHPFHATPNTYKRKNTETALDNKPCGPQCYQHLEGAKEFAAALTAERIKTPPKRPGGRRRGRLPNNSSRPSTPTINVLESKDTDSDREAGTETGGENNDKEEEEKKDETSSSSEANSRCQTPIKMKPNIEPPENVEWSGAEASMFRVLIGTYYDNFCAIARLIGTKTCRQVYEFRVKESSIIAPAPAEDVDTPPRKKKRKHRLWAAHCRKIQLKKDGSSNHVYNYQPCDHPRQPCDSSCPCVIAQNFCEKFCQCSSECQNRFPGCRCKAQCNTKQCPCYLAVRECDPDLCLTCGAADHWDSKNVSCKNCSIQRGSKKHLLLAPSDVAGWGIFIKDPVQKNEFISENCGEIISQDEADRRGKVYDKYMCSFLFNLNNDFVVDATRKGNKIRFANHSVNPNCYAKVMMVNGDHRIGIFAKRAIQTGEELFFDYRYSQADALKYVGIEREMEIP
Chain of EZH2 Mutant Y641N (O75530 whole entry partner, looked up): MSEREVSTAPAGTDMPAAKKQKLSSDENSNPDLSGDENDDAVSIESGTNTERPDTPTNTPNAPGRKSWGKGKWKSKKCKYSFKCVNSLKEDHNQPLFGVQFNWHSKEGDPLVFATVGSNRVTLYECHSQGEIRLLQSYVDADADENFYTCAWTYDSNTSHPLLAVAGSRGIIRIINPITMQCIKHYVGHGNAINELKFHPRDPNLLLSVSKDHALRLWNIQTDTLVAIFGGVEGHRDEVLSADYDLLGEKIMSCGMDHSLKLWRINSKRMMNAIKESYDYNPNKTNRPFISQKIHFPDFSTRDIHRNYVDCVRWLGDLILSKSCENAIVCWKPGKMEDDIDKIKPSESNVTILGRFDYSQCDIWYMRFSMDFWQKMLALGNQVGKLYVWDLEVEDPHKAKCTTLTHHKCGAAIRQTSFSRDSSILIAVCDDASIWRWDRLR
Chain of EZH2 Mutant Y641N (Q15022 whole entry partner, looked up): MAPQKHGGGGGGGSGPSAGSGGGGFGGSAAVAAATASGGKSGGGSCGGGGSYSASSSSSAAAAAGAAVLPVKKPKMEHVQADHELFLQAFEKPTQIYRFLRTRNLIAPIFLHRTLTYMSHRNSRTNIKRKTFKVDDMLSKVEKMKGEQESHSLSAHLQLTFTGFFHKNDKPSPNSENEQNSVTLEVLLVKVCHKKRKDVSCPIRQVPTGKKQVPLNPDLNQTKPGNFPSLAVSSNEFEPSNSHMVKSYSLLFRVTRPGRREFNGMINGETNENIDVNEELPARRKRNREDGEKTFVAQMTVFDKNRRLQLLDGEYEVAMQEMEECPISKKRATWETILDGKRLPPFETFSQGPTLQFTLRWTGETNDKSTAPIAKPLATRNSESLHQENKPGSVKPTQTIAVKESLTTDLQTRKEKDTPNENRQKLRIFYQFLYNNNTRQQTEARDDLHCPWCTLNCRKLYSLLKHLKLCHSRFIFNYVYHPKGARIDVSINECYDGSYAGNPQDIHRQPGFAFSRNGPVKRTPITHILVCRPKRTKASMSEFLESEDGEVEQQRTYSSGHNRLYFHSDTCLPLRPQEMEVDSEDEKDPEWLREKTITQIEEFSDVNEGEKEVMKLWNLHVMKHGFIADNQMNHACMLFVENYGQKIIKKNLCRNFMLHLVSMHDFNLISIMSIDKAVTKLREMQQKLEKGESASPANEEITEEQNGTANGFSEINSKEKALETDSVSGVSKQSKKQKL
Chain of EZH2 Mutant Y641N (Q09028 whole entry partner, looked up): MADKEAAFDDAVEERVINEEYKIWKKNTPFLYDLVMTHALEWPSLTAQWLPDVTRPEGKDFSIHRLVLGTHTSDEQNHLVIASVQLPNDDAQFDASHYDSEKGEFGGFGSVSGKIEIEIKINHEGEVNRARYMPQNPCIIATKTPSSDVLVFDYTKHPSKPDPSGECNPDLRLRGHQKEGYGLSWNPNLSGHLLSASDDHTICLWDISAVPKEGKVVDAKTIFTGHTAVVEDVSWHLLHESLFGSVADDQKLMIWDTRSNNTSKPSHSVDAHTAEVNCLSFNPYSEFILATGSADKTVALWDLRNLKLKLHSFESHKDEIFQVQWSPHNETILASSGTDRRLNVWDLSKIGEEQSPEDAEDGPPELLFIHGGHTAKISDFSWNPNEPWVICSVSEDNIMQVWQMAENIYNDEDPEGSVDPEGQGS
Chain of WT EZH2 (Q15910 whole entry, looked up): as the sequence (Q15910 whole entry Y641N, looked up) above, with N641Y counted along it
Chain of WT EZH2 (O75530 whole entry partner, looked up): as the sequence (O75530 whole entry partner, looked up) above
Chain of WT EZH2 (Q15022 whole entry partner, looked up): as the sequence (Q15022 whole entry partner, looked up) above
Chain of WT EZH2 (Q09028 whole entry partner, looked up): as the sequence (Q09028 whole entry partner, looked up) above

| Ki (WT EZH2; [1]) [µM] | IC50 (EZH2 Mutant Y641N; [2]) [µM] | Ki (WT EZH2; [3]) [µM] | IC50 (EZH2 Mutant Y641N; [4]) [µM] | Compound |
| --- | --- | --- | --- | --- |
| 0.0008 | 0.009 | – | – | COC(c1cc(Cl)c2c(c1Cl)C(=O)N(Cc1c(C)cc(C)[nH]c1=O)CC2)C1CCS(=O)(=O)C1 (single isomer, unassigned) [Example 151] |
| 0.0446 | 0.553 | – | – | COC(c1cc(C)c2c(c1Cl)C(=O)N(Cc1c(C)cc(C)[nH]c1=O)CC2)C1CCN(C2COC2)CC1 (single isomer, unassigned) [Example 154] |
| 0.0013 | 0.027 | – | – | COC(c1cc(C)c2c(c1Cl)C(=O)N(Cc1c(C)cc(C)[nH]c1=O)CC2)C1CCN(C2COC2)CC1 (single isomer, unassigned) [Example 155] |
| – | – | 0.375 | 1.71 | COC(c1cc(Cl)c2c(c1Cl)C(=O)N(Cc1c(C)cc(C)[nH]c1=O)CC2)C1CCN(C2COC2)CC1 (single isomer, unassigned) [Example 156] |
| – | – | 0.578 | 5.13 | CCOC(c1cc(Cl)c2c(c1Cl)C(=O)N(Cc1c(C)cc(C)[nH]c1=O)CC2)C1CS(=O)(=O)C1 (single isomer, unassigned) [Example 158] |
| – | – | 0.021 | 0.086 | COC(c1cc(Cl)c2c(c1Cl)C(=O)N(Cc1c(C)cc(C)[nH]c1=O)CC2)C1CCOC1 (single isomer, unassigned) [Example 160] |
| – | – | 0.148 | 2.97 | COC(c1cc(Cl)c2c(c1Cl)C(=O)N(Cc1c(C)cc(C)[nH]c1=O)CC2)C1CCOC1 (single isomer, unassigned) [Example 162] |
| – | – | 0.2 | 1.97 | [2H]C([2H])([2H])OC(c1cc(Cl)c2c(c1Cl)C(=O)N(Cc1c(C)cc(C)[nH]c1=O)CC2)C1CCN(C(=O)CO)CC1 (single isomer, unassigned) [Example 164] |
| 0.0002 | 0.002 | – | – | COC(c1cc(Cl)c2c(c1Cl)C(=O)N(Cc1c(C)cc(C)[nH]c1=O)CC2)C1CCNCC1 (single isomer, unassigned) [Example 166] |
| 0.062 | 0.85 | – | – | COC(c1cc(Cl)c2c(c1Cl)C(=O)N(Cc1c(C)cc(C)[nH]c1=O)CC2)C1CCNCC1 (single isomer, unassigned) [Example 167] |
| 0.0007 | 0.008 | – | – | COC(c1cc(C)c2c(c1Cl)C(=O)N(Cc1c(C)cc(C)[nH]c1=O)CC2)C1CCN(C(=O)CO)CC1 (single isomer, unassigned) [Example 168] |
| 0.0151 | 0.07 | – | – | COC(c1cc(C)c2c(c1Cl)C(=O)N(Cc1c(C)cc(C)[nH]c1=O)CC2)C1CCN(C(=O)CO)CC1 (single isomer, unassigned) [Example 169] |
| 0.0008 | 0.014 | – | – | COC(c1cc(Cl)c2c(c1Cl)C(=O)N(Cc1c(C)cc(C)[nH]c1=O)CC2)C1CN(C(=O)[C@@H](C)O)C1 (single isomer, unassigned) [Example 170] |
| 0.328 | 2.63 | – | – | COC(c1cc(Cl)c2c(c1Cl)C(=O)N(Cc1c(C)cc(C)[nH]c1=O)CC2)C1CN(C(=O)[C@@H](C)O)C1 (single isomer, unassigned) [Example 171] |
| 0.0008 | 0.012 | – | – | COC(c1cc(Cl)c2c(c1Cl)C(=O)N(Cc1c(C)cc(C)[nH]c1=O)CC2)C1CN(C(=O)[C@H](C)O)C1 (single isomer, unassigned) [Example 172] |
| 0.016 | 0.206 | – | – | COC(c1cc(Cl)c2c(c1Cl)C(=O)N(Cc1c(C)cc(C)[nH]c1=O)CC2)C1CN(C(=O)[C@H](C)O)C1 (single isomer, unassigned) [Example 173] |
| 0.0006 | 0.013 | – | – | COC(c1cc(Cl)c2c(c1Cl)C(=O)N(Cc1c(C)cc(C)[nH]c1=O)CC2)C1CN(C)C1 (single isomer, unassigned) [Example 174] |
| 0.085 | 1 | – | – | COC(c1cc(Cl)c2c(c1Cl)C(=O)N(Cc1c(C)cc(C)[nH]c1=O)CC2)C1CN(C)C1 (single isomer, unassigned) [Example 175] |

The remaining lines, values behind:

| Compound | Ki (WT EZH2; [1]) [µM] | IC50 (EZH2 Mutant Y641N; [2]) [µM] | Ki (WT EZH2; [3]) [µM] | IC50 (EZH2 Mutant Y641N; [4]) [µM] |
| --- | --- | --- | --- | --- |
| COC(c1ccc2c(c1Cl)C(=O)N(Cc1c(C)cc(C)[nH]c1=O)CC2)C1CCOC1 (single isomer, unassigned) [Example 134] | 0.131 | 1.93 | – | – |
| COC(c1ccc2c(c1Cl)C(=O)N(Cc1c(C)cc(C)[nH]c1=O)CC2)C1CCOC1 (single isomer, unassigned) [Example 135] | 0.002 | 0.014 | – | – |
| COC(c1cc(Cl)c2c(c1Cl)C(=O)N(Cc1c(C)cc(C)[nH]c1=O)CC2)C1CCN(C)CC1 (single isomer, unassigned) [Example 136] | – | – | 0.0001 | 0.003 |
| COC(c1cc(Cl)c2c(c1Cl)C(=O)N(Cc1c(C)cc(C)[nH]c1=O)CC2)C1CCN(C)CC1 (single isomer, unassigned) [Example 137] | – | – | 0.133 | 1.17 |
| COC(c1cc(Br)c2c(c1Cl)C(=O)N(Cc1c(C)cc(C)[nH]c1=O)CC2)C1CN(C(=O)CO)C1 (single isomer, unassigned) [Example 138] | 0.046 | 0.249 | – | – |
| COC(c1cc(Br)c2c(c1Cl)C(=O)N(Cc1c(C)cc(C)[nH]c1=O)CC2)C1CN(C(=O)CO)C1 (single isomer, unassigned) [Example 139] | 0.0005 | 0.0085 | – | – |
| COC(c1cc(Cl)c2c(c1Cl)C(=O)N(Cc1c(C)cc(C)[nH]c1=O)CC2)[C@H](C)CO (single isomer, unassigned) [Example 140] | 0.103 | 1.17 | – | – |
| COC(c1cc(Cl)c2c(c1Cl)C(=O)N(Cc1c(C)cc(C)[nH]c1=O)CC2)[C@H](C)CO (single isomer, unassigned) [Example 141] | 0.002 | 0.016 | – | – |
| COC(c1cc(Cl)c2c(c1Cl)C(=O)N(Cc1c(C)cc(C)[nH]c1=O)CC2)[C@@H](C)CO (single isomer, unassigned) [Example 142] | 0.008 | 0.109 | – | – |
| COC(c1cc(Cl)c2c(c1Cl)C(=O)N(Cc1c(C)cc(C)[nH]c1=O)CC2)[C@@H](C)CO (single isomer, unassigned) [Example 143] | 0.276 | 1.77 | – | – |
| COc1cc(C)[nH]c(=O)c1CN1CCc2c(C)cc(C(OC)C3COC3)c(Cl)c2C1=O (single isomer, unassigned) [Example 144] | 0.0002 | 0.005 | – | – |
| COc1cc(C)[nH]c(=O)c1CN1CCc2c(C)cc(C(OC)C3COC3)c(Cl)c2C1=O (single isomer, unassigned) [Example 145] | 0.07 | 0.272 | – | – |
| COC(c1cc(Br)c2c(c1Cl)C(=O)N(Cc1c(C)cc(C)[nH]c1=O)CC2)C1CCN(C)CC1 (single isomer, unassigned) [Example 146] | 0.0001 | 0.0035 | – | – |
| COC(c1cc(Br)c2c(c1Cl)C(=O)N(Cc1c(C)cc(C)[nH]c1=O)CC2)C1CCN(C)CC1 (single isomer, unassigned) [Example 147] | 0.128 | 0.543 | – | – |
| COC(c1cc(Cl)c2c(c1Cl)C(=O)N(Cc1c(C)cc(C)[nH]c1=O)CC2)C1CCS(=O)(=O)C1 (single isomer, unassigned) [Example 148] | 0.056 | 0.439 | – | – |
| COC(c1cc(Cl)c2c(c1Cl)C(=O)N(Cc1c(C)cc(C)[nH]c1=O)CC2)C1CCS(=O)(=O)C1 (single isomer, unassigned) [Example 149] | 0.539 | 2.27 | – | – |
| COC(c1cc(Cl)c2c(c1Cl)C(=O)N(Cc1c(C)cc(C)[nH]c1=O)CC2)C1CCS(=O)(=O)C1 (single isomer, unassigned) [Example 150] | 0.0001 | 0.003 | – | – |
